Measured values from US20250136593A1, “DEGRADATION AGENT AND USE THEREOF” (HITGEN INC., priority 2021, published 2025).

Assays:
[1] = molecular target: ternary complex between BCL-XL and CRBN-DDB1 (Homo sapiens, UniProt Q07817+Q96SW2); assay: Compound-induced formation of ternary complex between BCL-XL and CRBN-DDB1 by AlphaLISA; type: biochemical; design: key: the number of + indicates the intensity of AlphaLISA peak signal; ++: the number of + indicates the intensity of AlphaLISA peak signal; +++: the number of + indicates the intensity of AlphaLISA peak signal; ++++: the number of + indicates the intensity of AlphaLISA peak signal; +++++: the number of + indicates the intensity of AlphaLISA peak signal; settings: peak signal; 60 nM Strep-BCL-XL and 60 nM His-CRBN/DDB1
Protocol: Experimental Example 4, Detection of Compound-Induced Formation of Ternary Complex Between BCL-XL and CRBN-DDB1 by AlphaLISA Method
Na2HPO4(Sigma), NaH2PO4(Sigma), sodium chloride (Sigma), Tween-20 (Sigma), AlphaLISA®Nikel Chelate Acceptor beads (PerkinElmer), Strep-Tactin® Alpha Donor beads (PerkinElmer), Assay plate (Corning), Strep-BCl-XL (HitGen), His-CRBN/DDB1 (HitGen).
DMSO was used to dissolve the dry powder of the test compound to obtain a 10.00 mM solution. The instrument ECHO was used to perform gradient dilution of the compound, which was then added to a 384-well reaction plate (Corning, Cat #3824), so that the final concentration of DMSO in the entire reaction system (10.0 μL) was less than 1%, and the same amount of DMSO was added and used as a control.
Strep-BCl-XL and His-CRBN/DDB1 proteins were dissolved in buffer (10 mM NaH2PO4, 40 mM Na2HPO4, 150 mM sodium chloride, 0.03% Tween20, pH=7.4) to obtain a protein mixture of 60 nM Strep-BCL-XL and 60 nM His-CRBN/DDB1, the protein mixture (5ul/well) was added to the 384-well plate in which the compound had been added, and incubated at room temperature for 30 minutes, then 5 μl of a detection mixture with 50 μg/ml AlphaLISA®Nikel Chelate Acceptor beads and 50 μg/ml Strep-Tactin® Alpha Donor beads was added, and incubated at room temperature for 2 hours; and then a microplate reader was used to detect AlphaLISA signal.
Fifth order polynomial or Sixth order polynomial in Polynomial of Graphpad 6.0 was used for data fitting.

MOLT-4 cells = assay: Inhibitory activity on MOLT4 cell proliferation by Cell Titer-Glo method; type: cell-based; settings: Homo sapiens, 72 hours incubation, read-out: IC50 concentration for inhibiting MOLT-4 cells
Protocol: Experimental Example 5, Evaluation Experiment of Inhibitory Activity of Compound on MOLT4 Cell Proliferation by Cell Titer-Glo Method
RPMI medium modified (Hyclone), FBS (Corning), Dimethyl Sulfoxide, P/S, CellTiter-Gbo Luminescent Cell Viability Assay (Promega), MOLT-4 cell (ATCC).
MOLT-4 cells were cultured in monolayer in vitro in an incubator containing 5% CO2 air at 37° C. The culture medium was RPMI 1640 with 10% FBS and 1% P/S. 15 μL of MOLT4 cells, containing 5×10^4 cells per ml, was inoculated to a 384-well plate (Corning, 3707), 750 cells/well, and incubated at 37° C. and 5% CO2 for 30 minutes. Then the compound that had been diluted in advance was added, with a total of 9 concentration points, and 2 parallel repetitions for each concentration point. The cell growing group without adding the compound was used as a negative control (maximum signal control), and the culture medium group was used as a blank control (minimum signal control). At the same time, it was ensured that the final DMSO content in each reaction well was 0.1%. The compound and the cells were incubated in a cell culture incubator at 37° C., 5% CO2 for 3 days (72 hours).
The 384-well plate was taken out from the cell culture incubator and allowed to stand at room temperature, equilibrated for 20 to 30 minutes, and then 25 μl of Cell Titer-Glo detection reagent was added to each reaction well, lysed on a shaker for 2 minutes, incubated for 10 minutes, and BMG PHERAStar (Luminescence) was used for reading.
The inhibition rate was calculated based on the luminescence signals: the average value of the negative control (maximum signal control) and the blank control (minimum signal control) was first calculated, then the inhibition rates of the compound at different concentrations for the cells were calculated as follows:
The IC50 of the compound to inhibit cell activity was calculated by fitting with GraphPad Prism 6 using log(inhibitor) vs. response−Variable slope mode. The fitting equation was: Y=Bottom+(Top−Bottom)/(1+10^((LogIC50−X)*HillSlope)), wherein Y represented the inhibition rate and X represented the known compound concentration after Log.

Chain of ternary complex between BCL-XL and CRBN-DDB1 (Q07817 whole entry): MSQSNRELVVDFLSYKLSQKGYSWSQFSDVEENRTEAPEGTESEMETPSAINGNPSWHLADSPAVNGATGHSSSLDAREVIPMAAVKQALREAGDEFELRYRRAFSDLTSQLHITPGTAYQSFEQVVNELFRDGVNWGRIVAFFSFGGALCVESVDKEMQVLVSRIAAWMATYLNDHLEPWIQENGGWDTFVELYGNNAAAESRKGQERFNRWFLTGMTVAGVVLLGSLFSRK
Chain of ternary complex between BCL-XL and CRBN-DDB1 (Q96SW2 whole entry): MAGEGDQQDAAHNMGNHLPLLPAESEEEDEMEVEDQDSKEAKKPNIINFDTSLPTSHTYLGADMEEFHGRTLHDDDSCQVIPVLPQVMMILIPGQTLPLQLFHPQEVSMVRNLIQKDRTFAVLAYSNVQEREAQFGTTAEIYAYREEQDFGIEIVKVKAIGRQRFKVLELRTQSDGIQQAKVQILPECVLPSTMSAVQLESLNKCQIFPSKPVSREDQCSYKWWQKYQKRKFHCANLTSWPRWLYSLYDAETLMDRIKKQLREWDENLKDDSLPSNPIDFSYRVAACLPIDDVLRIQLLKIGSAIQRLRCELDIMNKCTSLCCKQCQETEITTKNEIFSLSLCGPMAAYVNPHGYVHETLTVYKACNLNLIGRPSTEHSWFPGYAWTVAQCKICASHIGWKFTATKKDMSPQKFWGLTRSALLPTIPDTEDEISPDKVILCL
Chain of ternary complex between BCL-XL and CRBN-DDB1 (Q16531 whole entry partner): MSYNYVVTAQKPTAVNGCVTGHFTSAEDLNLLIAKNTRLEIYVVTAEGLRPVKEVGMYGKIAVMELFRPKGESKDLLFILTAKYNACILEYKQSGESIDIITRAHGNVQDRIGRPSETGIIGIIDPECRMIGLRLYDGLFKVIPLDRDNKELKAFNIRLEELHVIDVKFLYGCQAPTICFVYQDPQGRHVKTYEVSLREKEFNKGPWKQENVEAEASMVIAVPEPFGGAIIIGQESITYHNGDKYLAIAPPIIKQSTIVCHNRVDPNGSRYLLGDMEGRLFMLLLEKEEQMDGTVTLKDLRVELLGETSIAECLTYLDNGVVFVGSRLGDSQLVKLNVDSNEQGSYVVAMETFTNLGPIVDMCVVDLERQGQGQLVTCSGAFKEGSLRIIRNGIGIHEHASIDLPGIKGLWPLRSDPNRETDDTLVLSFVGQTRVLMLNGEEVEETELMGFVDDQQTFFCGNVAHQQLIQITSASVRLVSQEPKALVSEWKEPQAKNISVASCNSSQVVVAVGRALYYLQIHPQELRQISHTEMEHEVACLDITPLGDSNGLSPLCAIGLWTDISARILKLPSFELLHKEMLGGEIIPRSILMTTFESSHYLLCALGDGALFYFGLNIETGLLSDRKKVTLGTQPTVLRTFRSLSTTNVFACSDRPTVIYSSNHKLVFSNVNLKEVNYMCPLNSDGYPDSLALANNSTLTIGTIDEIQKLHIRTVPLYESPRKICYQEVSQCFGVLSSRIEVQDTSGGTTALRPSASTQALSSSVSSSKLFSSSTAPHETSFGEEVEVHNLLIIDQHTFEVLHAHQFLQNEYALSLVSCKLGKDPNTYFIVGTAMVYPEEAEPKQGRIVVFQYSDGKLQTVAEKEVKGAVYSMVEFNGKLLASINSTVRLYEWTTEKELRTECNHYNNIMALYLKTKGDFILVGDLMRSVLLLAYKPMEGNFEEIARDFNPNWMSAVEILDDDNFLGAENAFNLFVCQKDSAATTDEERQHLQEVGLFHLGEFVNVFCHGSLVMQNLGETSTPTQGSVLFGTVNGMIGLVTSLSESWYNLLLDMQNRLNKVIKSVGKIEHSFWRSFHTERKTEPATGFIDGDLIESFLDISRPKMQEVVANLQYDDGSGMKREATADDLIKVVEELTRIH

SMILES | AlphaLISA signal (PROTAC ternary complex signal intensity) [1] | IC50 (MOLT-4 cells)
C=Cc1cc(-c2nc3c(c(NC)n2)CCN(C(=O)c2ccc(COc4ccc(C#CCN(C)CCCCOc5cccc6c5C(=O)N(C5CCC(=O)NC5=O)C6=O)cc4)cc2)C3)cnc1C=C (stereo not drawn) [Compound B2] | + | 
C/C=c1/cc(-c2nc3c(c(NC)n2)CCN(C(=O)c2ccc(COc4ccc(C#CCN(C)CCCCCOc5cccc6c5C(=O)N(C5CCC(=O)NC5=O)C6=O)cc4)cc2)C3)cn/c1=C/C (stereo not drawn) [Compound B3] | + | 
C/C=c1/cc(-c2ncc3c(n2)CN(C(=O)c2ccc(/C=C/c4ccc(C#CCN5CCN(CCCCCCc6cccc7c6CN(C6CCC(=O)NC6=O)C7=O)CC5)cc4)cc2)CC3)cn/c1=C/C (stereo not drawn) [Compound C1-2] |  | > 200 µM
C=Cc1cc(-c2nc3c(c(NC)n2)CCN(C(=O)c2ccc(COc4ccc(C#CCN5CCN(CCCCCCNc6cccc7c6C(=O)N(C6CCC(=O)NC6=O)C7=O)CC5)cc4)cc2)C3)cnc1C=C (stereo not drawn) [Compound C2-4] | ++++ | 
C=Cc1cc(-c2nc3c(c(NC)n2)CCN(C(=O)c2ccc(COc4ccc(C#CCN5CCN(CCCCCCCCNc6cccc7c6C(=O)N(C6CCC(=O)NC6=O)C7=O)CC5)cc4)cc2)C3)cnc1C=C (stereo not drawn) [Compound C2-5] | +++ | 
C=Cc1cc(-c2ncc3c(n2)CN(C(=O)c2ccc(/C=C/c4ccc(C#CCN5CCN(CCCCCCOc6cccc7c6C(=O)N(C6CCC(=O)NC6=O)C7=O)CC5)cc4)cc2)CC3)cnc1C=C (stereo not drawn) [Compound C3-3] | + | 
C=Cc1cc(-c2ncc3c(n2)CN(C(=O)c2ccc(/C=C/c4ccc(C#CCN5CCN(CCCCCOc6cccc7c6C(=O)N(C6CCC(=O)NC6=O)C7=O)CC5)nc4)cc2)CC3)cnc1C=C (stereo not drawn) [Compound C3-8] |  | > 200 µM
C=Cc1cc(-c2ncc3c(n2)CN(C(=O)c2ccc(COc4ccc(C#CCN5CCN(CCCCCOc6cccc7c6C(=O)N(C6CCC(=O)NC6=O)C7=O)CC5)cc4)cn2)CC3)cnc1C=C (stereo not drawn) [Compound C3-10] | ++ | 
C=Cc1cc(-c2nc3c(c(NC)n2)CCN(C(=O)c2ccc(COc4ccc(C#CCN5CCN(CCCCCOc6cccc7c6C(=O)N(C6CCC(=O)NC6=O)C7=O)CC5)cc4)cn2)C3)cnc1C=C (stereo not drawn) [Compound C3-11] |  | 100 to 200 µM
C=Cc1cc(-c2ncc3c(n2)CN(C(=O)c2ccc(COc4ccc(C#CCN5CCN(CCCCCOc6cccc7c6C(=O)N(C6CCC(=O)NC6=O)C7=O)CC5)nc4)cc2)CC3)cnc1C=C (stereo not drawn) [Compound C3-13] | + | 
O=C1CCC(N2Cc3cc(C#CCCCN4CCN(CC#Cc5ccc(/C=C/c6ccc(C(=O)N7CCc8cnc(-c9cnc%10ccccc%10c9)nc8C7)cc6)cc5)CC4)ccc3C2=O)C(=O)N1 (stereo not drawn) [Compound D2-3] |  | > 200 µM
O=C1CCC(N2Cc3c(C#CCCCCN4CCN(CC#Cc5ccc(/C=C/c6ccc(C(=O)N7CCc8cnc(-c9cnc%10ccccc%10c9)nc8C7)cc6)cc5)CC4)cccc3C2=O)C(=O)N1 (stereo not drawn) [Compound D2-5] |  | 100 to 200 µM
CNc1nc(-c2cnc3ccccc3c2)nc2c1CCN(C(=O)c1ccc(/C=C/c3ccc(C#CCN4CCN(CCCCC#Cc5cccc6c5CN(C5CCC(=O)NC5=O)C6=O)CC4)cc3)cc1)C2 (stereo not drawn) [Compound D2-7] |  | 100 to 200 µM
O=C1CCC(N2Cc3c(CCCN4CC(N5CCN(CC#Cc6ccc(/C=C/c7ccc(C(=O)N8CCc9cnc(-c%10cnc%11ccccc%11c%10)nc9C8)cc7)cc6)CC5)C4)cccc3C2=O)C(=O)N1 (stereo not drawn) [Compound F2-5] |  | > 200 µM
O=C1CCC(N2Cc3c(CCCN4CCC(N5CCN(CC#Cc6ccc(/C=C/c7ccc(C(=O)N8CCc9cnc(-c%10cnc%11ccccc%11c%10)nc9C8)cc7)cc6)CC5)CC4)cccc3C2=O)C(=O)N1 (stereo not drawn) [Compound F2-6] |  | 100 to 200 µM
O=C1CCC(N2C(=O)c3cccc(N4CC5(CC(N6CCN(CC#Cc7ccc(/C=C/c8ccc(C(=O)N9CCc%10cnc(-c%11cnc%12ccccc%12c%11)nc%10C9)cc8)cc7)CC6)C5)C4)c3C2=O)C(=O)N1 (stereo not drawn) [Compound F3A-1] |  | > 200 µM
O=C1CCC(N2Cc3c(CN4CC5(CC(N6CCN(CC#Cc7ccc(/C=C/c8ccc(C(=O)N9CCc%10cnc(-c%11cnc%12ccccc%12c%11)nc%10C9)cc8)cc7)CC6)C5)C4)cccc3C2=O)C(=O)N1 (stereo not drawn) [Compound F3A-2] |  | 100 to 200 µM
O=C1CCC(N2Cc3c(cccc3N3CC4(CC(CN5CCN(CC#Cc6ccc(/C=C/c7ccc(C(=O)N8CCc9cnc(-c%10cnc%11ccccc%11c%10)nc9C8)cc7)cc6)CC5)C4)C3)C2=O)C(=O)N1 (stereo not drawn) [Compound F3A-4] |  | 100 to 200 µM
CNc1nc(-c2cnc3ccccc3c2)nc2c1CCN(C(=O)c1ccc(/C=C/c3ccc(C#CCN4CCN(C(=O)CCCCCC(=O)N[C@H](C(=O)N5C[C@H](O)C[C@H]5C(=O)NCc5ccc(-c6scnc6C)cc5)C(C)(C)C)CC4)cc3)cc1)C2 [Compound G1-3] |  | > 200 µM

Continued, values first:

AlphaLISA signal (PROTAC ternary complex signal intensity) [1] | IC50 (MOLT-4 cells) | SMILES
 | 1 to 10 µM | C=Cc1cc(-c2ncc3c(n2)CN(C(=O)c2ccc(/C=C/c4ccc(C#CCN5CCN(CCCCc6ccc7c(c6)CN(C6CCC(=O)NC6=O)C7=O)CC5)cc4)cc2)CC3)cnc1C=C (stereo not drawn) [Compound C1-3]
 | 1 to 10 µM | CNc1nc(-c2cnc3ccccc3c2)nc2c1CCN(C(=O)c1ccc(/C=C/c3ccc(C#CCN4CCN(CCCCCc5cccc6c5CN(C5CCC(=O)NC5=O)C6=O)CC4)cc3)cc1)C2 (stereo not drawn) [Compound C1-4]
 | 1 to 10 µM | C=Cc1cc(-c2nc3c(c(NC)n2)CCN(C(=O)c2ccc(COc4ccc(C#CCN5CCN(CCCNc6cccc7c6C(=O)N(C6CCC(=O)NC6=O)C7=O)CC5)cc4)cc2)C3)cnc1C=C (stereo not drawn) [Compound C2-6]
 | 50 to 100 µM | C=Cc1cc(-c2ncc3c(n2)CN(C(=O)c2ccc(COc4ccc(C#CCN5CCN(CCCCCOc6cccc7c6C(=O)N(C6CCC(=O)NC6=O)C7=O)CC5)cc4)nc2)CC3)cnc1C=C (stereo not drawn) [Compound C3-12]
 | 1 to 10 µM | O=C1CCC(c2cccc(C#CCCN3CCN(CC#Cc4ccc(OCC56CC(C(=O)N7CCc8cnc(-c9cnc%10ccccc%10c9)nc8C7)(C5)C6)cc4)CC3)c2)C(=O)N1 (stereo not drawn) [Compound D2-16]
 | 1 to 10 µM | O=C1CCC(N2Cc3cc(C4CN(C5CCN(CC#Cc6ccc(OCC78CC(C(=O)N9CCc%10cnc(-c%11cnc%12ccccc%12c%11)nc%10C9)(C7)C8)cc6)CC5)C4)ccc3C2=O)C(=O)N1 (stereo not drawn) [Compound F1A-5]
 | 1 to 10 µM | O=C1CCC(N2C(=O)c3ccc(N4CCN(CC5CCN(CC#Cc6ccc(OCC78CC(C(=O)N9CCc%10cnc(-c%11cnc%12ccccc%12c%11)nc%10C9)(C7)C8)cc6)CC5)CC4)cc3C2=O)C(=O)N1 (stereo not drawn) [Compound F1B-4]
 | 50 to 100 µM | O=C1CCC(N2Cc3cc(CN4CC(N5CCN(CC#Cc6ccc(/C=C/c7ccc(C(=O)N8CCc9cnc(-c%10cnc%11ccccc%11c%10)nc9C8)cc7)cc6)CC5)C4)ccc3C2=O)C(=O)N1 (stereo not drawn) [Compound F2-2]
 | 1 to 10 µM | O=C1CCC(N2Cc3cc(N4CCC(N5CCN(CC#Cc6ccc(/C=C/c7ccc(C(=O)N8CCc9cnc(-c%10cnc%11ccccc%11c%10)nc9C8)cc7)cc6)CC5)CC4)ccc3C2=O)C(=O)N1 (stereo not drawn) [Compound F2-3]
 | 1 to 10 µM | CNc1nc(-c2cnc3ccccc3c2)nc2c1CCN(C(=O)c1ccc(/C=C/c3ccc(C#CCN4CCN(C5CCN(c6ccc7c(c6)CN(C6CCC(=O)NC6=O)C7=O)CC5)CC4)cc3)cc1)C2 (stereo not drawn) [Compound F2-7]
 | 1 to 10 µM | O=C1CCC(N2Cc3cc(N4CCC(N5CCN(CC#Cc6ccc(OCC78CC(C(=O)N9CCc%10cnc(-c%11cnc%12ccccc%12c%11)nc%10C9)(C7)C8)cc6)CC5)CC4)ccc3C2=O)C(=O)N1 (stereo not drawn) [Compound F2-10]
